Experimental data: patent US20250090557A1 (priority 2020, published 2025)
Entries after “also recorded” stand apart in the source; their conditions may differ. Counter-ions that a name gives are not always drawn. Like-named read-outs stand apart in the source and are kept apart here.

Legend:
uninfected cultures = settings: 10-1000 nM
SARS-CoV-2 = format: cell-based
IL-6 = format: cell-based, human
HO-1 = HO-1 protein levels in Calu3 cells (flow cytometry); format: cell-based, human
Nrf2 = Nrf2 protein levels in Calu3 cells (flow cytometry); format: cell-based, human; settings: infected and uninfected Calu3, pretreatment, data not shown
Keap1 = Keap1 protein levels in Calu3 cells (flow cytometry); format: cell-based, human; settings: infected and uninfected Calu3, pretreatment, data not shown
[1] = Calu3, 0.25 μM pretreatment, data not shown

`CC1(C)CC(NC(=O)C[P+](c2ccccc2)(c2ccccc2)c2ccccc2)CC(C)(C)N1[O]` [Mito-TEMPO] was tested, and the “cytotoxicity (XTT assay)” value (uninfected cultures) was “no observed cytotoxicity”.
`CCCCCCCCCC[P+](c1ccccc1)(c1ccccc1)c1ccccc1.[Br-]` [DTPP] was tested, and the “antiviral activity (TCID50 assay)” value (SARS-CoV-2; Calu3, 1000 nM) was “Antiviral activity was observed” and the “cytotoxicity (XTT assay)” value (Calu3 cells; uninfected cells, 1000 nM) was “not cytotoxic”.
In the case of brusatol, the “effect on the antiviral effect of DMF and Mito-MES (TCID50)” value (SARS-CoV-2; Calu3, 0.25 μM pretreatment for 24 h) is reported as “inhibited the antiviral effect of both DMF alone and Mito-MES”, the “SARS-CoV-2 infection (flow cytometry)” value (SARS-CoV-2; [1]) is reported as “directly enhanced SARS-CoV-2 infection” and the “effect on the reduction in percent infected cells induced by Mito-MES and DMF” value (SARS-CoV-2; [1]) is reported as “attenuated the reduction in the percent of infected Calu3 cells”. The “release of progeny SARS-CoV-2 virus particles to the cell supernatant (TCID50)” value (SARS-CoV-2; Calu3, pretreatment with 0.25 μM) was “significantly increased subsequent release of progeny SARS-CoV-2 virus particles”, the “effect on the anti-inflammatory effect of Mito-MES (IL-6 ELISA)” value (IL-6; Calu3, 0.25 μM) was “inhibited the anti-inflammatory effect of Mito-MES” and the “release of IL-6 to the cell supernatant from infected cells (ELISA)” value (IL-6; Calu3, pretreatment 0.25 μM) was “significantly increased subsequent release of IL-6”. For the same compound, the HO-1 protein levels (HO-1) was “increased the HO-1 protein levels”, the “impact on the effect of Mito-MES on HO-1 protein levels” value (HO-1; Calu3, 0.25 μM, data not shown) was “did not have an impact on the effect of Mito-MES on HO-1 protein levels” and the “protein levels of Nrf2” value (Nrf2) was “reduced protein levels of Nrf2”. The “protein levels of Keap” value (Keap1) was “increased protein levels of Keap”.
For `COC(=O)/C=C/C(=O)OC` [DMF, dimethyl fumarate], the “viral titers / antiviral effect vs vehicle control (TCID50)” value (SARS-CoV-2; Calu3, 10 μM DMF alone, FIG. 11-a) was “did not produce an observable antiviral effect; also recorded: did not reduce viral titers”, the “release of progeny SARS-CoV-2 virus particles to the cell supernatant (TCID50 assay)” value (SARS-CoV-2; Calu3, pretreatment with 10 μM DMF for 24 h, FIG. 5-a) was “reduction in subsequent release of progeny SARS-CoV-2 virus particles” and the “release of IL-6 from infected cells (ELISA)” value (IL-6; Calu3, pretreatment 10 μM for 24 h) was “reduction in subsequent release of IL-6”. The HO-1 protein levels (HO-1; Calu3, pretreatment 10 μM, data not shown) was “increased HO-1 protein levels”, the “cytotoxicity (XTT assay)” value (Calu3 cells; uninfected Calu3, 100 μM, 24 h) was “cytotoxic” and the “protein levels of Nrf2” value (Nrf2) was “did not impact protein levels of Nrf2”. The “protein levels of Keap” value (Keap1) was “reduced protein levels of Keap”.
